Data on three compounds can be found in patent US12516237B2, “Alkyl lactone-derived corrosion inhibitors” (ChampionX LLC, priority 2018, dated 2026).

This assay is described as follows: Bubble cell test: corrosion rate of steel electrode by aqueous linear polarization resistance (LPR) in CO2-saturated synthetic oilfield brine/oil. To be noted: 15 h after dosing, 80° C., 80% water cut, CO2 purge, C1018, samples 10 ppm of 20% active + 2% 2ME; for % Protection (corrosion inhibition): relative to baseline corrosion rate before dosing, comparatives 20 ppm of 10% active + 1% 2ME; for Inhibited Corrosion Rate: comparatives 20 ppm of 10% active + 1% 2ME (same active concentration). An excerpt: The bubble cell test was used to investigate the effectiveness of alkyl lactone-derived hydroxyamides as corrosion inhibitors. This test measures the corrosion rate of a steel electrode by aqueous linear polarization resistance (LPR). The steel electrodes (C1018) were placed in a bath of synthetic oilfield brine which was deaerated with carbon dioxide. The corrosion rate of the electrode was compared in the absence or presence of an alkyl lactone-derived hydroxyamide.
The synthetic oilfield brine contained about 3 wt % of sodium chloride, and the oil included a synthetic oil of INT-200 and xylene. The ratio of water to oil was 80:20. The oil/brine was placed into bubble cells and purged with CO2. The oil/brine was continually purged with CO2 to saturate the oil/brine prior to starting the test. The test cells were blanketed with CO2 throughout the duration of the test to maintain saturation. The bubble cells were stirred at 100 revolutions per minute (rpm) for the duration of the test to maintain thermal equilibrium at 80° C. The electrodes were all cleaned and polished prior to testing.
After about 3 hours of pre-corrosion time (i.e. without a corrosion inhibitor) 10 ppm of a 20% active of an alkyl-lactone chemistry (shown in Table 2 and prepared as described in Example 1) with 2% 2-mercaptoethanol (2ME) solvent was added. Comparison with a benzyl ammonium chloride quarternary chemistry and imidazoline chemistry was made at the same active concentration as the alkyl lactone together with 2ME (at the same dose based on chemistry and 2ME activity—i.e. these were dosed at twice the concentration because the active and 2ME in the test blend was half).

`CCCCCCCC(O)CCC(=O)NCCCN(C)C` (stereo not drawn) [Sample 1, γ-Undecalactone/DMAPA]: the “% Protection (corrosion inhibition)” value is reported as 37% and the “Inhibited Corrosion Rate” value is reported as 181 mpy.
`CCCCCCC(O)CCCC(=O)NCCCN(C)C` (stereo not drawn) [Sample 2, δ-Undecalactone/DMAPA]: the “% Protection (corrosion inhibition)” value is reported as 43% and the “Inhibited Corrosion Rate” value is 151 mpy.
Take `CCCCC(O)CCC(=O)NCCCN(C)C` (stereo not drawn) [Sample 3, γ-Octalactone/DMAPA]: the “% Protection (corrosion inhibition)” value came out at 31% and the “Inhibited Corrosion Rate” value amounted to 177 mpy.
